In US11903955B2, “Methods of treating heart failure with reduced ejection fraction” (ASTRAZENECA AB, priority 2019, dated 2024):
Where “and” joins values, the source holds several entries; their conditions need not be identical. Equal entries are not always repeated. Where two headings read alike, the source gives them in different places. Marks after values point to notes of the source that are not given here.

How the values were obtained:
[1] = test system: patients with chronic heart failure with reduced ejection fraction (LVEF ≤40%); details: for Change in KCCQ total symptom score at 8 mo., Win ratio (95% CI): >1 indicates superiority; for KCCQ-TSS increase, points more with dapagliflozin compared to placebo: baseline to 8 months
Protocol: KCCQ total symptom score was analyzed as a composite rank-based endpoint, incorporating patient vital status at 8 months along with change in score from baseline to 8 months in surviving patients, using the rank analysis of covariance method, with a corresponding win ratio used to estimate the magnitude of treatment effect.^17 The consistency of the treatment effect among 14 prespecified subgroups were assessed.
The KCCQ was completed electronically by patients, without assistance by site study staff (as validated), and evaluated at randomization, 4-months, and 8-months. The KCCQ is a 23-item, self-administered disease-specific instrument that quantifies symptoms (frequency, severity and recent change), physical function, quality of life, and social function over the prior 2 weeks. In the KCCQ, the total symptom score (TSS) quantifies the symptom frequency and severity, KCCQ clinical summary score (KCCQ-CSS) includes the physical function and symptoms domains, and KCCQ overall summary score (OSS) is derived from the following domains (total symptom score, physical function, quality of life and social function). […] Scores are transformed to a range of 0-100, in which higher scores reflect better health status.
In this study, patients were divided into three subgroups, based on the tertiles of baseline KCCQ-TSS (which was the KCCQ domain prespecified as the secondary endpoint): (i) ≤65.6, (ii) 65.7-87.5, (iii) >87.5 points.
The differences between treatment groups in mean KCCQ-TSS, CSS, and OSS at 4 months and 8 months in surviving patients were analyzed, using a mixed model for repeated measurements and estimated the least-squares mean differences between treatment groups adjusted for baseline values. Responder analyses were conducted examining proportions of patients with a deterioration, and clinically important improvements in KCCQ at 8 months. Established, clinically meaningful thresholds for KCCQ (≥5 point (at least small), ≥10 point (moderate), and ≥15 point (large) change) were used for all responder analyses across the KCCQ domains.
Odds ratios to estimate differences between treatment groups, and their corresponding 95% confidence intervals and 2-sided p-values were estimated from logistic regression models (which included treatment group, stratification variable (T2D at randomization) and baseline KCCQ values); the models used imputed data accounting for missing KCCQ values and estimates were combined using Rubin's rules.

patients with HFrEF = details: for Mild hyperkalemia (>5.5 mmol/L), HR (95% CI) / Moderate/Severe hyperkalemia (>6.0 mmol/L), HR (95% CI): dapagliflozin vs placebo; for Mild hyperkalemia (>5.5 mmol/L), No. events/patients: excluding baseline K+ > 5.5; for Moderate/Severe hyperkalemia (>6.0 mmol/L), No. events/patients: excluding baseline K+ > 6.0
Source text: Hyperkalemia often limits the use of mineralocorticoid receptor antagonists (MRAs) in patients with heart failure and reduced ejection fraction (HFrEF), denying these patients a life-saving therapy.

[2] = test system: patients with chronic heart failure with reduced ejection fraction (LVEF ≤40%); details: for NT-proBNP, between-treatment difference: baseline to 8 months; for decrease in NT-proBNP: between baseline and 8 months
Protocol: Data from all randomly assigned patients were included in the analyses of the primary and secondary outcomes, according to the intention-to-treat principle. Baseline characteristics were summarized as means and standard deviations, medians and inter-quartile ranges, or percentages. Longitudinal measures, such as glycated hemoglobin level (HbA1c) and body weight, were analyzed using mixed model for repeated measurements, and the least-squares mean differences between treatment groups were estimated, together with 95% confidence intervals. Time-to-event data were evaluated with the use of Kaplan-Meier estimates and Cox proportional hazards models, stratified by diabetes status, with history of heart failure hospitalization and treatment as fixed-effect factors (for the renal endpoint, baseline eGFR was included instead of history of heart failure hospitalization); hazard ratios, 95% confidence intervals, and two-sided P values were calculated with the use of the Cox models.

[3] = test system: patients with HFrEF without diabetes; details: individuals without diabetes at baseline
Source text: FIG. 17 describes incidence of new onset T2D (HbA1c ≥6.5%) measured at 2 consecutive study visits post-randomization or investigator-reported new T2D vs placebo patients with previously undiagnosed diabetes, i.e., HbA1c ≥6.5%
Patients also had measurement of a glycated hemoglobin (HbA1c) level in a central laboratory at visit 1 and again at visit 2 (the randomization visit), which occurred 14 (±7) days later. For this prespecified subgroup analysis, patients were categorized as having diabetes if there was a history of diabetes or the glycated hemoglobin was at least 6.5% (≥48 mmol/mol) at both visits 1 and 2. Patients with a glycated hemoglobin level <5.7% ([…]) at both visits 1 and 2 were considered to have a normal glycated hemoglobin. For the purposes of this study, patients with a glycated hemoglobin ≥5.7% and <6.5% were considered to have pre-diabetes. Id.

[4] = dapagliflozin vs placebo, at 8 months
[5] = individuals with diabetes, dapagliflozin vs placebo
[6] = individuals without diabetes, dapagliflozin vs placebo
[7] = baseline to 8 month, dapagliflozin vs placebo

In the case of `CCOc1ccc(Cc2cc([C@@H]3O[C@H](CO)[C@@H](O)[C@H](O)[C@H]3O)ccc2Cl)cc1` [Dapagliflozin, dapagliflozin], the “Change in KCCQ total symptom score at 8 mo.” value ([1]; No T2DM (N = 1298)) is reported as 5.4 ± 17.7, the “Change in KCCQ total symptom score at 8 mo.” value ([1]; T2DM (N = 1075)) is reported as 7.0 ± 19.7 and the “KCCQ total symptom score, mean difference dapagliflozin vs placebo” value ([1]; all patients, at 8 months) is reported as 2.8 points. For the same compound, the “patients with deterioration (≥5 point decline) in KCCQ-TSS” value ([1]; all patients, at 8 months) was 25% and 25.3%, the “patients with five or greater point (at least small) improvement in KCCQ-TSS” value ([1]; all patients, at 8 months) was 58% and 58.3% and the “Change in KCCQ total symptom score at 8 mo.” value ([1]; all patients, baseline to month 8, mean ± SD) was 6.1 ± 18.6 points. For the same compound, the “Change in KCCQ total symptom score at 8 mo.” value ([1]; all patients, baseline to month 8, mean ± SD, listed as dapagliflozin) was 6.1±18.6 points, the “mean KCCQ-CSS, points higher than placebo” value ([1]; at 4 months) was 1.8 points and the “mean KCCQ-OSS, points higher than placebo” value ([1]; at 4 months) was 1.7 points. The “mean KCCQ-TSS, points higher than placebo” value ([1]; at 4 months) was 1.9 points, the “mean KCCQ-CSS, points higher than placebo” value ([1]; at 8 months) was 2.5 points and the “mean KCCQ-OSS, points higher than placebo” value ([1]; at 8 months) was 2.3 points. The “number needed to treat (NNT) for at least small (≥5 point) improvement in KCCQ-TSS” value ([1]; at 8 months) was 14 (10-23), the “number needed to treat (NNT) for large (≥15 point) improvement in KCCQ-TSS” value ([1]; at 8 months) was 18 (12-35) and the “number needed to treat (NNT) for moderate (≥10 point) improvement in KCCQ-TSS” value ([1]; at 8 months) was 15 (11-25). For the same compound, the “patients with large (≥15 point) improvement in KCCQ-TSS” value ([1]; at 8 months) was 54.0%, the “patients with moderate (≥10 point) improvement in KCCQ-TSS” value ([1]; at 8 months) was 54.5% and the “Change in KCCQ total symptom score at 8 mo., win-ratio (95% CI)” value ([1]; dapagliflozin vs placebo, No T2DM) was 1.15 (1.05, 1.26). The “Change in KCCQ total symptom score at 8 mo., win-ratio (95% CI)” value ([1]; dapagliflozin vs placebo, T2DM) was 1.22 (1.11, 1.35), the “Change in KCCQ total symptom score at 8 mo., Win ratio (95% CI)” value ([1]; dapagliflozin vs placebo, all patients) was 1.18 (1.11-1.26)† and the “Change in KCCQ total symptom score at 8 mo., Win ratio (95% CI)” value ([1]; dapagliflozin vs placebo, all patients, listed as dapagliflozin) was 1.18. For the same compound, the “odds ratio (95% CI) for large (≥15 point) improvement in KCCQ-TSS” value [1, 4] was 1.14 (1.07-1.22), the “odds ratio (95% CI) for moderate (≥10 point) improvement in KCCQ-TSS” value [1, 4] was 1.15 (1.08-1.22) and the “odds ratio for deterioration (≥5 point decline) in KCCQ-TSS” value [1, 4] was 0.84. For the same compound, the “odds ratio for ≥5 point improvement in KCCQ-TSS” value [1, 4] was 1.15, the “patients with deterioration in KCCQ-TSS” value ([1]; individuals with diabetes) was 24.5% and the “patients with ≥5-point improvement in KCCQ-TSS” value ([1]; individuals with diabetes) was 58.9%. For the same compound, the “odds ratio for deterioration in KCCQ-TSS” value [1, 5] was 0.78 (0.71, 0.87), the “odds ratio for ≥5-point improvement in KCCQ-TSS” value [1, 5] was 1.20 (1.09, 1.31) and the “patients with an increase of at least 5 points in KCCQ-TSS” value ([1]; individuals without diabetes) was 57.7%. For the same compound, the “patients with significant deterioration in KCCQ-TSS” value ([1]; individuals without diabetes) was 26.0%, the “odds ratio for increase of at least 5 points in KCCQ-TSS” value [1, 6] was 1.12 (95% CI 1.03, 1.22) and the “odds ratio for significant deterioration in KCCQ-TSS” value [1, 6] was 0.88 (0.81, 0.97). For the same compound, the “KCCQ-TSS increase, points more with dapagliflozin compared to placebo” value ([1]; patients with diabetes) was 3.5 (95% CI 1.6-5.4) points, the “KCCQ-TSS increase, points more with dapagliflozin compared to placebo” value ([1]; patients without diabetes) was 2.2 (95% CI 0.7-3.7) points and the “Mild hyperkalemia (>5.5 mmol/L), rate per 100 py” value (“Mild hyperkalemia … per 100 py” for short) (patients with HFrEF; All patients) was 8.1 per 100 py. For the same compound, the “Moderate/Severe hyperkalemia (>6.0 mmol/L), rate per 100 py” value (shortened to “Moderate/Severe hyperkalemia … per 100 py”) (patients with HFrEF; All patients) was 1.0 per 100 py, the “Mild hyperkalemia (>5.5 mmol/L), HR (95% CI)” value (shortened to “Mild hyperkalemia … (95% CI)”) (patients with HFrEF; All patients) was 0.93 (0.78-1.11) and the “Moderate/Severe hyperkalemia (>6.0 mmol/L), HR (95% CI)” value (patients with HFrEF; All patients) was 0.64 (0.42-0.99). The “Mild hyperkalemia (>5.5 mmol/L), No. events/patients” value (patients with HFrEF; All patients) was 243/2292, the “Moderate/Severe hyperkalemia (>6.0 mmol/L), No. events/patients” value (patients with HFrEF; All patients) was 34/2358 and the “Mild hyperkalemia … per 100 py” value (patients with HFrEF; MRA treated at baseline) was 8.6 per 100 py. For the same compound, the “Moderate/Severe hyperkalemia … per 100 py” value (patients with HFrEF; MRA treated at baseline) was 0.9 per 100 py, the “Mild hyperkalemia … (95% CI)” value (patients with HFrEF; MRA treated at baseline) was 0.86 (0.70-1.05) and the “Moderate/Severe hyperkalemia (>6.0 mmol/L), HR (95% CI)” value (patients with HFrEF; MRA treated at baseline) was 0.50 (0.29-0.85). The “Moderate/Severe hyperkalemia (>6.0 mmol/L), HR (95% CI)” value (patients with HFrEF; MRA treated at baseline, listed as dapagliflozin) was 0.50 (0.29, 0.85), the “Mild hyperkalemia (>5.5 mmol/L), No. events/patients” value (patients with HFrEF; MRA treated at baseline) was 180/1632 and the “Moderate/Severe hyperkalemia (>6.0 mmol/L), No. events/patients” value (patients with HFrEF; MRA treated at baseline) was 21/1683. The “Mild hyperkalemia … per 100 py” value (patients with HFrEF; No MRA at baseline) was 7.1 per 100 py, the “Moderate/Severe hyperkalemia … per 100 py” value (patients with HFrEF; No MRA at baseline) was 1.4 per 100 py and the “Mild hyperkalemia … (95% CI)” value (patients with HFrEF; No MRA at baseline) was 1.20 (0.84-1.72). The “Moderate/Severe hyperkalemia (>6.0 mmol/L), HR (95% CI)” value (patients with HFrEF; No MRA at baseline) was 1.17 (0.52-2.62), the “Mild hyperkalemia (>5.5 mmol/L), No. events/patients” value (patients with HFrEF; No MRA at baseline) was 63/660 and the “Moderate/Severe hyperkalemia (>6.0 mmol/L), No. events/patients” value (patients with HFrEF; No MRA at baseline) was 13/675. The “Mild hyperkalemia, patients (%)” value (patients with HFrEF; patients treated with an MRA) was 180 (11%) patients (%), the “moderate/severe hyperkalemia, patients (%)” value (patients with HFrEF; patients treated with an MRA) was 21 (1.2%) patients (%) and the “Change in systolic BP” value ([2]; baseline to 8 month (Visit 6)) was −1.92 ± 14.92 mmHg. The Change in weight ([2]; baseline to 8 month (Visit 6)) was -0.88 ± 3.86 kg, the “Change in HbA1c” value ([2]; baseline to 8 month (Visit 6), only patients with diabetes at baseline) was −0.21 ± 1.14% and the “Systolic BP, between group difference (95% CI)” value [2, 7] was −1.41 (−2.31 to −0.52), p = 0.002 mmHg. The “Weight, between group difference (95% CI)” value [2, 7] was −0.98 (−1.22 to −0.74), p < 0.001 kg, the “HbA1c, between group difference (95% CI)” value ([2]; baseline to 8 month, dapagliflozin vs placebo, only patients with diabetes at baseline) was −0.25 (−0.36 to −0.14), p < 0.001% and the Change in potassium ([2]; in vivo) was 0.07 ± 0.53. The “Potassium, between group difference (95% CI)” value ([2]; in vivo) was −0.02 (−0.05 to 0.01), p = 0.298, the “NT-proBNP, between-treatment difference” value ([2]; participants with diabetes, dapagliflozin vs placebo) was −333 (−562 to −104) pg/ml and the “decrease in NT-proBNP” value ([2]; participants with diabetes) was 257 ± 2502 pg/mL. For the same compound, the “NT-proBNP, between-treatment difference” value ([2]; patients without diabetes, dapagliflozin vs placebo) was −278 (−485 to −71) pg/ml, the “decrease in NT-proBNP” value ([2]; patients without diabetes) was 144 ± 2286 pg/mL and the “new-onset diabetes, HR” value ([3]; dapagliflozin vs placebo (Cox)) was 0.68. For the same compound, the “reduction of new-onset diabetes” value ([3]; vs placebo) was 32%.
